Results as given in PMC10477886, “Adamantaniline Derivatives Target ATP5B to Inhibit Translation of Hypoxia Inducible Factor‐1α” (Advanced Science, 2023).
Entries after “also recorded” stand apart in the source; their conditions may differ.

Columns and labels:
F1‐ATP synthase complex = F1‐ATP synthase complex (Sus scrofa, UniProt K7GLT8+P80021); experiment: fluorescence polarization binding assay; set-up: species or system pig; conditions: F1‐ATPase 30 nM, HI‐103 4 nM, competitor 1 μM
Source text: ATP5A and ATP5B are important components of FOF1–ATP synthase, also known as ATP synthase, which is a protein complex that catalyzes ATP synthesis by utilizing energy from the translocation of protons across biological membranes.^[ [40] ^] FOF1‐ATP synthase consists of two domains: the membrane‐spanning domain, FO, which acts as a proton channel, and the soluble catalytic domain, F1, which synthesizes ATP and is composed of nine subunits(α 3 β 3 γδɛ).^[ [41], [42], [43], [44] ^] […] To verify whether HI‐101 targeted ATP5A and ATP5B, we knocked down the subunits of F1 domains separately by shRNA.
F1‐ATPase at indicated concentrations was incubated with HI‐103 (4 nM), bodipy‐1 was as a negative molecule, conduct the experiment after incubating in 96‐well microplates of black polystyrene for 10 min. The FP results were analyzed with GraphPad Prism 9.0.

[1] = system: HIF‐1α target genes (VEGF and PDK1) mRNA expression; experiment: quantitative RT‐PCR of HIF‐1α target genes; assay type: cell-based, human; conditions: listed as HI‐101
Method: (§1) Total RNA was isolated using Trizol reagent (Invitrogen). Complementary DNA was synthesized using a Reverse Transcriptase reagent (Promega). Fluorescence real‐time PCR was performed with the double‐stranded DNA dye SYBR Master Mix (Roche Diagnostics Corporation, Indianapolis, IN, USA) and the Applied Biosystems Step One Plus detection system (ABI 7900). The upstream and downstream gene‐specific primers were as follows. • HIF‐1α sense: 5′‐[…]‐3′, • HIF‐1α antisense: 5′‐[…]‐3′; • HIF‐1β sense: 5′‐[…]‐3′, • HIF‐1β antisense:5′‐[…]‐3′; • VEGF sense: 5′‐[…]‐3′, • VEGF antisense: 5′‐[…]‐3′; • PDK1 sense:5′‐[…]‐3′, • PDK1 antisense:5′‐GGAGGTCTCAACACGAGGT‐3′; • β‐actin sense: 5′‐[…]‐3′, • β‐actin antisense: 5′‐[…]‐3′; • ATP5D sense:5′‐ […]‐3′, • ATP5D antisense: 5′‐[…]‐3′; • ATP5E sense: 5′‐ […]‐3′, • ATP5E antisense:5′‐[…]‐3′; • ATP5F1 sense: 5′‐ […]‐3′, • ATP5F1 antisense:5′‐[…]‐3′.

[2] = system: HIF‐1α and HIF‐1β mRNA expression; experiment: RT‐qPCR of HIF‐1α and HIF‐1β mRNA; assay type: cell-based, human
Source text: The whole protein synthesis process can be divided into four major steps: transcription, translation, posttranslational modifications and folding to a mature protein, and protein secretion.^[ [52] ^] We then investigated the potential effects of HI‐101 on HIF‐1α transcription and translation. […] On the basis of the existing experimental results, we draw a conclusion that HI‐101 inhibited the synthesis of nascent HIF‐1α protein without affecting its transcription.
as §1

ATP synthase = target: T1, ATP synthase (Bos taurus, UniProt P00829); experiment: MitoTox Complex V OXPHOS activity assay; assay type: biochemical; conditions: up to 50 µM
T1 construct: purchased Abcam ab109907
Method: The activity of complex V was determined using the MitoTox Complex V OXPHOS Activity Assay kit from Abcam (ab109907, Cambridge, MA, USA), according to the instructions. The activity of complex V was measured by monitoring the change in absorbance at 340 nm over a period of 2 h at 30 °C. Oligomycin (Selleck, […]) was used as a positive control for the assay.

[3] = target: T2, interaction between ATP5B and HIF‐1α mRNA (Homo sapiens, UniProt P06576); experiment: RNA‐binding protein immunoprecipitation; assay type: cell-based; conditions: immunoprecipitation with anti‐ATP5B antibody
T2 construct: endogenous in cells
Source text: It has been reported recently that KUSC‐5037 inhibited HIF‐1α transcription by suppressing FoF1‐ATP synthase activity.^[ [35] ^] Thus, we wondered whether HI‐101 inhibited HIF‐1α translation in a similar way. Several ATP synthase inhibitors with various mechanisms of action have been reported.^[ [54] ^] Among them, Oligomycin inhibits the ATP synthase activity by binding the FO domain; Bedaquiline, an FDA‐approved drug, inhibits mitochondrial ATP production by targeting the gamma subunit of the ATP synthase;^[ [55] ^] Aurovertin B decreases ATP synthase activity by targeting the subunits of F1 domain. We first measured HIF‐1α transcriptional activity and protein level with the presence of reported ATP synthase inhibitors. […] A recent study reported that ATP5B shut down mPTP by binding circRNA SCAR in an enzymatic‐independent way,^[ [56] ^] which reminded us whether ATP5B played a similar role in blocking HIF‐1α translation. RNA‐binding protein immunoprecipitation was then performed using the Magna RIP RNA‐Binding Protein Immunoprecipitation Kit (Millipore, Burlington, MA) to detect the interaction between ATP5B and HIF‐1α mRNA.

O=C(Nc1ccc(C23CC4CC(CC(C4)C2)C3)cc1)c1cccc(Cl)c1 [1‐3a, N‐(4‐((3r,5r,7r)‐Adamantan‐1‐yl)Phenyl)−3‐Chlorobenzamide]
competitive fluorescence polarization binding (F1‐ATP synthase complex): bound to F1‐ATP synthase complex in a similar way as HI‐103
HIF‐1α target genes mRNA expression [1]: significantly inhibited HIF‐1α transcriptional activity and the expressions of HIF‐1α target genes; also recorded: significantly decreased the mRNA expression of HIF‐1α target gene VEGF
HIF‐1α and HIF‐1β mRNA expression [2]: did not affect HIF‐1α and HIF‐1β mRNA expression
ATP synthase activity (ATP synthase): no effect on ATP synthase activity
HIF‐1α mRNA binding to ATP5B [3]: improved HIF‐1α mRNA binding to ATP5B
